The values below come from publication PMC8766184, “Molecular Docking, Synthesis, and Tyrosinase Inhibition Activity of Acetophenone Amide: Potential Inhibitor of Melanogenesis” (BioMed Research International, 2022).

Read-outs that look alike come from different tables or passages of the source.

Data set [1] concerns the target T1, mushroom tyrosinase (Agaricus bisporus, UniProt C7FF04).
T1 construct: purchased Sigma Aldrich
The data set can be described thus: In vitro mushroom tyrosinase inhibition assay (L-DOPA substrate, dopachrome absorbance). It is filed as biochemical.
Protocol: In vitro antityrosinase potential was determined following the method previously described with little modifications [33, 34]. Briefly, 140 μL of sodium phosphate buffer, 20 μL (30 U/mL) of the enzyme mushroom tyrosinase, and 20 μL of the tested compound were added in a well of a 96-well microplate. After a preincubation of 10 minutes at room temperature of 20 μL (0.85 mM), the substrate L-DOPA was added followed by an incubation of 20 minutes at the same temperature. Subsequently, the absorbance of the intermediate dopachrome was recorded by using an Opti Max tunable microplate reader (Sunnyvale, USA) at 472 nm. […] The negative inhibitor was a phosphate buffer without an inhibitor.

Data set [2] addresses T1, mushroom tyrosinase. The data set can be described thus: Mushroom tyrosinase inhibitory kinetics (Lineweaver-Burk and Dixon plots). The data set is classed as biochemical. How it is done: Various concentrations of the inhibitor 5c were among 0.00 to 0.013 μM and that of L-DOPA was 0.00 to 0.0064 μM during all kinetic assays. For preincubation and calculations, the same protocol was followed as described in in vitro tyrosinase inhibition assay and continuous monitoring at 30 s interval for 5 minutes after adding the enzyme tyrosinase, and the formation of dopachrome was measured at 475 nm. The enzyme inhibitory action and the kind of inhibition were determined by the Lineweaver-Burk and Dixon plots. 1/V (inverse of velocities) versus 1/[S] (inverse of substrate concentration) mM^−1 were plotted to determine inhibition constant Ki.
The enzyme inhibitory interaction mechanism of 3(a–e) and 5(a–e) with the binding site of mushroom tyrosinase was determined using Michaelis-Menten kinetic studies. […] A striking reduction in the reaction rate in the presence of inhibitors refers to a decrease in the final absorbance in comparison to control without inhibitors. The inhibitory index of all these tested compounds varied depending upon the position of various substituents and classes of compounds [27]. Inhibition kinetics was analyzed by the Lineweaver-Burk and Dixon plots.

T1 sequence (C7FF04 1-392): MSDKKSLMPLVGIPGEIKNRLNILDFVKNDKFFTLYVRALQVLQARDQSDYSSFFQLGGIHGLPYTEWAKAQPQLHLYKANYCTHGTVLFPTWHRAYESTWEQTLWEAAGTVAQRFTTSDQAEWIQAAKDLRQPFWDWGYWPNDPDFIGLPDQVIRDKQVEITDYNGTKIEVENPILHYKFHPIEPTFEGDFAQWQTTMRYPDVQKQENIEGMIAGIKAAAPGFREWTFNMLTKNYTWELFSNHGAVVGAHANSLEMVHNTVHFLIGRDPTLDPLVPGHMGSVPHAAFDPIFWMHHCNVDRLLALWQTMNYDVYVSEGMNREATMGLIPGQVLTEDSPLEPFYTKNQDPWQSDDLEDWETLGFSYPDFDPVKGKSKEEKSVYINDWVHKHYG

In the case of `CC(=O)c1cccc(NC(=O)COC(=O)c2cccc(O)c2)c1` [Compound 3a, 2-(3-acetylphenylamino)-2-oxoethyl-3-hydroxybenzoate], the IC50 in data set [1] came to 323 ± 16.9 µM.
In turn, `CC(=O)c1cccc(NC(=O)COC(=O)c2ccc(O)cc2)c1` [Compound 3b, 2-(3-acetylphenylamino)-2-oxoethyl-4-hydroxybenzoate] gave an IC50 in data set [1] of 288 ± 32.2 µM.
The same measure, in the same setting: the same measure for `CC(=O)c1cccc(NC(=O)COC(=O)c2ccc(O)cc2O)c1` [Compound 3c, 2-(3-acetylphenylamino)-2-oxoethyl 2,4-dihydroxybenzoate]: 27.4 ± 3.6 µM; for `CC(=O)c1cccc(NC(=O)COC(=O)c2ccc(O)c(O)c2)c1` [Compound 3d, 2-(3-acetylphenylamino)-2-oxoethyl 3,4-dihydroxybenzoate]: 128 ± 8.5 µM.
Molecule `CC(=O)c1cccc(NC(=O)COC(=O)c2cc(O)cc(O)c2)c1` [Compound 3e, 2-(3-acetylphenylamino)-2-oxoethyl 3,5-dihydroxybenzoate] yielded an IC50 in data set [1] of 255 ± 14.2 µM.
For `CC(=O)c1cccc(NC(=O)COC(=O)C=Cc2ccccc2)c1` [Compound 5a, 2-(3-acetylphenylamino)-2-oxoethylcinnamate], the melting point lay in the range of 159 to 161 °C. Moreover, the IC50 in data set [1] is 46.4 ± 5.8 µM.
Take `CC(=O)c1cccc(NC(=O)COC(=O)/C=C/c2ccc(O)cc2)c1` [Compound 5b, 2-(3-acetylphenylamino)-2-oxoethyl(E)-3-(4-hydroxyphenyl) acrylate]: in data set [1], the IC50 turned out to be 309 ± 36.8 µM.
Consider `CC(=O)c1cccc(NC(=O)COC(=O)/C=C/c2ccc(O)cc2O)c1` [Compound 5c, 2-(3-acetylphenylamino)-2-oxoethyl(E)-3-(2,4-dihydroxyphenyl)acrylate], for which, in data set [1] (L-DOPA 0.85 mM substrate, enzyme 30 U/mL, absorbance at 472 nm, read-out: Mushroom tyrosinase inhibition IC50 ± SEM), the IC50 came out at 0.002 ± 0.0002 µM. The Ki in data set [2] (Dixon plot, L-DOPA substrate, read-out: dissociation constant (Ki)) came out at 0.0072 µM. Moreover, in data set [2] (Lineweaver-Burk plot, L-DOPA substrate), the type of inhibition result is given as “competitive”. Further, in data set [2] (remaining enzyme activity vs enzyme concentration at various inhibitor doses, L-DOPA), the reversibility of inhibition entry is on record as “reversible”.
The molecule `CC(=O)c1cccc(NC(=O)COC(=O)/C=C/c2ccc(Cl)cc2)c1` [Compound 5d, 2-(3-acetylphenylamino)-2-oxoethyl(E)-3-(4-chlorophenyl)acrylate] came in with an IC50 in data set [1] of 61.6 ± 11.4 µM.
